Measured values published in paper PMC5748644, “Synthesis and In Vitro Cytotoxicity of the 4-(Halogenoanilino)-6-bromoquinazolines and Their 6-(4-Fluorophenyl) Substituted Derivatives as Potential Inhibitors of Epidermal Growth Factor Receptor Tyrosine Kinase” (Pharmaceuticals, 2017).
pIC50: −log10 of the molar value.

target: T1, epidermal growth factor receptor tyrosine kinase (EGFR-TK) (Homo sapiens, UniProt P00533); assay: ELISA kinase assay, poly(Glu,Tyr) phosphorylation, anti-phosphotyrosine antibody, […] nm; format: biochemical
T1 construct: commercial purified EGFR (Sigma-Aldrich), called both purified Epidermal Growth Factor Receptor and purified recombinant EGFR tyrosine kinase
T1 sequence (P00533 25-1210): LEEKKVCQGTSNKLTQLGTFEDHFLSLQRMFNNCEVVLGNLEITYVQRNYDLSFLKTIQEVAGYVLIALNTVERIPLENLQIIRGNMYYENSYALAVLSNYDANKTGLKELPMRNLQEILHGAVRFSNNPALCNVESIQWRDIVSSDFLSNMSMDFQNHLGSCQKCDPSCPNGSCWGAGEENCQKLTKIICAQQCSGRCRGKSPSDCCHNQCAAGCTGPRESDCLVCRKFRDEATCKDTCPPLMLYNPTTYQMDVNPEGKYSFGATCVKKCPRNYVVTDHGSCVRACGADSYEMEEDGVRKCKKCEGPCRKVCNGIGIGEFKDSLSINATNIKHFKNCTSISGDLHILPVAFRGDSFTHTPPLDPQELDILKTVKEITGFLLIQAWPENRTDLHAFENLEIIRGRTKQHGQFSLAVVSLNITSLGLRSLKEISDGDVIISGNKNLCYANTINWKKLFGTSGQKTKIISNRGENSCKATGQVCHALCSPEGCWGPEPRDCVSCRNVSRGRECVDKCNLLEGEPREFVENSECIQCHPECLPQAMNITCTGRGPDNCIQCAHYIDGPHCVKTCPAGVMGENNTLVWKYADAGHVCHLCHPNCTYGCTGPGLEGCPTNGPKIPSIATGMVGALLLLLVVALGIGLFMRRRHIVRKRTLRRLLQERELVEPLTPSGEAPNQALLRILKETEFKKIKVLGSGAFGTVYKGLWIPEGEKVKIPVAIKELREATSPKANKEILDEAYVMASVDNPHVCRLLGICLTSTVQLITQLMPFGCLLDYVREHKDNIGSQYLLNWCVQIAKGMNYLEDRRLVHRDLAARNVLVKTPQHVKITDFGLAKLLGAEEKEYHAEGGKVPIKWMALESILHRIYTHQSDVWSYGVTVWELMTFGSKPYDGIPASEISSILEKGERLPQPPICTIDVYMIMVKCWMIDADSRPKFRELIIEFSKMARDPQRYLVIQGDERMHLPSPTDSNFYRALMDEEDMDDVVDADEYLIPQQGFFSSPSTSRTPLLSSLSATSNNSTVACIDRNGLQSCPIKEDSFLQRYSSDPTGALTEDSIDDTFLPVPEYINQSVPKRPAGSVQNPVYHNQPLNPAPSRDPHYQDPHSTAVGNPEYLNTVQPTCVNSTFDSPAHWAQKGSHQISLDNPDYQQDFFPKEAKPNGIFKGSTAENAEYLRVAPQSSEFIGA

| Compound | pIC50 |
| --- | --- |
| Fc1ccccc1Nc1nc(-c2ccc(Cl)cc2)nc2ccc(Br)cc12 [3g, 6-Bromo-2-(4-chlorophenyl)-N-(2-fluorophenyl)quinazolin-4-amine] | 7.15 |
| Fc1ccc(Nc2nc(-c3ccc(Cl)cc3)nc3ccc(Br)cc23)c(F)c1 [3l, 6-Bromo-2-(4-chlorophenyl)-N-(2,4-difluorophenyl)quinazolin-4-amine] | 7.42 |
| Fc1ccc(-c2ccc3nc(-c4ccc(Cl)cc4)nc(Nc4ccc(F)cc4F)c3c2)cc1 [4l, [2-(4-Chlorophenyl)-6-(4-fluorophenyl)quinazolin-4-yl]-2,4-difluorophenylamine] | 7.23 |
